In patent publication US6784167B2, “17-beta-hydroxysteroid dehydrogenase-II inhibitors” (Bayer Pharmaceuticals Corporation, priority 2000, dated 2004) one finds IC50 and melting point data, which are given here for 33 molecules.

SMILES strings stand for the structures. Like-named read-outs stand apart in the source and are kept apart here.

The target in data set [1] is T1, 17-Beta HSD II Enzyme (Homo sapiens, UniProt P37059).
T1 construct: made in house; host or cells: insect cells (baculovirus)
T1 sequence (P37059 1-387): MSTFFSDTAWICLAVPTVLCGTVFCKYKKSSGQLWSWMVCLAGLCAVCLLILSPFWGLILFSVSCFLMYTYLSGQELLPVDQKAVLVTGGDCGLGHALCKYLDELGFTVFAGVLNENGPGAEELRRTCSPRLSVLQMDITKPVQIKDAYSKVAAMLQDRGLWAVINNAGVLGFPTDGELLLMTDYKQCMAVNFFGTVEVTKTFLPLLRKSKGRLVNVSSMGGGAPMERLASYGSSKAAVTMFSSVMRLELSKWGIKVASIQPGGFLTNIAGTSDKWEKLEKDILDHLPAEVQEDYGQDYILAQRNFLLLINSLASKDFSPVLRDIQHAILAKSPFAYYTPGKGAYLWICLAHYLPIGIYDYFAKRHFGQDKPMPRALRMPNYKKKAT
In words: Primary assay: inhibition of 17-Beta HSD II enzyme (estradiol/NAD, PMS:MTS colorimetric readout at 490 nm). Type of data set: biochemical. The following applies: Table 7, baculovirus-expressed recombinant HSD II, estradiol substrate. Here is the method: HSD II protein purification: The method for purification of baculovirus-expressed HSD II was standardized as follows. The insect cell pellet containing recombinant HSD II was lysed in 2.5 volumes of lysis buffer (40 mM Tris, pH 7.5, 1 mM EDTA, 2 mM DTT, 10 uM NAD) containing 500 uM AEBSF, 10 ug/ml aprotinin, 1 uM pepstatin A, and 100 uM leupeptin. The pellet was nutated for 30 min in this buffer. Subsequently, the pellet was homogenized with 15 strokes using a glass and teflon potter. The volume was doubled with a 2× sucrose/NaCl solution (500 mM sucrose, 300 mM NaCl in lysis buffer). After centrifugation at 10,000×g for 30 min, the supernatant was decanted and stored at −20° C. The pellet was resuspended in 2.5 volumes of lysis buffer containing 250 mM sucrose and 150 mM NaCl. Homogenization was repeated (15 strokes) and the suspension was centrifuged again and the decanted supernatant was stored at −20° C. The pellet was resuspended with 2 times the original pellet volume in lysis buffer containing 150 mM NaCl and 1% Triton X-100. The suspension was nutated for 20 min and then homogenized with 5 strokes. Subsequently, the suspension was centrifuged at 30,000×g for 1 h and supernatant was decanted and poured into a chromatographic column. Sephadex G-25 (fine) was added in small amounts, allowing approximately 15 min after each addition for complete swelling. Sephadex addition was continued until all liquid was absorbed. The protein was eluted with 1 void volume of lysis buffer and eluate monitored at 280 nm optical density. The chromatographic procedure was repeated and an equal volume of glycerol was added to the final eluate.
Primary assay: After titration, the HSD II prep, generated with the standard protocol, was diluted to the appropriate concentration (generally 1/15 dilution). 55 μl of assay buffer (50 mM Hepes, pH 8.0) was added to all wells of a 96 well plate. 5 μl of 5% DMSO were added to wells A1-C1, A2-C2, F1-H1, and F2-H2. A 10 μl aliquot of a 10 mM solution in DMSO of each compound was diluted in 190 μl of assay buffer. The plate with these compound dilutions was then mixed for 15 min on a shaker and a 5 μl aliquot from each well was added to the […]. This was followed by 10 μl of HSD II enzyme ( 1/15 dilution)/estradiol mix in assay buffer containing 1% Triton X-100. The estradiol […] from a 20 mM estradiol DMSO stock solution, which was diluted 1/20 (50 μl/ml) in 50 mM Hepes buffer containing 1% Triton X-100. All wells, except F1-H1 and F2-H2, also received 10 μl of 25 mg/ml NAD (SIGMA) in 100 mM Hepes, pH 9. The blank wells F1-H1 and F2-H2 received 10 μl of NAD buffer. 20 μl of PMS:MTS solution (100 μl PMS into 1800 μl MTS, Promega) was added to all wells. The plate was covered with aluminum foil and incubated at room temperature for 1.5 h. The plate was analyzed at 490 nm on a Hewlett Pachard 8453 spectrophotometer and results were calculated.

Where [2] appears, read: read-out: IC50 values ≧2 μM and <10 μM.

For the molecule `CN1C(=O)C[C@H](c2ccc(O)cc2)[C@@H]1[C@H](O)c1ccc(-c2ccccc2)s1` (relative stereo) [Example 20, (±)-(4R*,5R*)-5-[(1S*)-hydroxy(5-phenyl(2-thienyl))methyl]-1-methyl-4-[4-hydroxyphenyl]pyrrolidin-2-one], the IC50 (commonly the point on the concentration scale where inhibition reaches its midpoint) in data set [1] is below 500 nM.
Take `CN1C(=O)C[C@H](c2ccccc2F)[C@@H]1[C@H](O)c1ccc(-c2cccs2)s1` [Example 155]: the melting point (commonly the temperature of the solid-liquid transition) lay within 200 to 202 °C. Further, in data set [1], the IC50 is below 500 nM.
In turn, `CN1C(=O)CC(c2ccccc2)C1C(O)c1ccc(S(=O)(=O)N2CCOCC2)s1` (stereo not drawn) [Example 36] gave a melting point of 214 to 218 °C. Besides, in data set [1], the IC50 is below 500 nM.
`CN1C(=O)C[C@H](c2ccccc2)[C@@H]1[C@H](O)c1ccc(S(=O)(=O)N2CCSCC2)s1` (racemic) [Example 35] returned a melting point of 197 to 199 °C. The IC50 in data set [1] is below 500 nM.
`CN1C(=O)CC(c2ccccc2)C1C(O)c1ccc(-c2ccc(C#N)cc2)s1` (stereo not drawn) [Example 80]: the melting point turned out to be 146 °C. Besides, the IC50 in data set [1] is below 500 nM.
Turning to `CN1C(=O)C[C@H](c2ccccc2)[C@@H]1[C@H](O)c1ccc(-c2ccccn2)s1` [Example 147], in data set [1], the concentration for half-maximal inhibition (IC50) was below 500 nM.
Consider `C#Cc1ccc([C@@H](O)[C@H]2[C@@H](c3ccccc3)CC(=O)N2C)s1` (relative stereo) [Example 23, (±)-(4R*,5R*)-5-[(1S*)(5-ethynyl(2-thienyl))hydroxymethyl]-1-methyl-4-phenylpyrrolidin-2-one], for which the melting point was found to be 187 °C. In data set [1], the half-maximal inhibitory concentration (IC50) was below 500 nM.
With `CN1C(=O)CC(c2ccccc2)C1C(O)c1ccc(-c2ccc(-c3ccccc3)c(F)c2)s1` (stereo not drawn) [Example 47], the melting point was 170 °C. For the same molecule, the IC50 in data set [1] (setting [2]) is 2000 to 10000 nM.
For the molecule `CN1C(=O)CC(c2ccccc2)C1C(O)C#Cc1ccc(F)cc1` (stereo not drawn) [Example 124], the melting point was 154 to 156 °C. Besides, in data set [1], the IC50 is below 500 nM.
The molecule `CN1C(=O)C[C@H](c2ccccc2)[C@@H]1[C@H](O)c1ccc(-c2ccccc2C(F)(F)F)s1` (racemic) [Example 34] had a melting point of 192 °C. In addition, in data set [1], the IC50 was below 500 nM.
Molecule `CN1C(=O)CC(c2ccccc2)C1C(O)c1ccc(-c2cccc(N)c2)s1` (stereo not drawn) [Example 67] registered a melting point of 190 °C. In addition, the concentration for half-maximal inhibition (IC50) in data set [1] was below 500 nM.
On to `CN1C(=O)C[C@H](c2ccccc2)[C@@H]1[C@H](O)C#Cc1ccccc1` (relative stereo) [Example 8, (±)-5-((1R*)-1-hydroxy-3-phenylprop-2-ynyl)(4R*,5R*)-1-methyl-4-phenylpyrrolidin-2-one], for which the IC50 in data set [1] is below 500 nM.
The molecule `CN1C(=O)C[C@H](c2ccccc2)[C@@H]1[C@H](O)C#Cc1ccccc1Cl` (racemic) [Example 126] came in with a melting point of 139 to 140 °C. Also, the 50% inhibitory concentration (IC50) in data set [1] is below 500 nM.
With `CN1C(=O)CC(c2ccccc2)C1C(O)c1ccc(-c2ccccn2)s1` (stereo not drawn) [Example 50], the melting point is 234 °C (dec.). For the same molecule, the IC50 in data set [1] was below 500 nM.
`COc1cccc(C2CC(=O)N(C)C2C(O)c2ccc(-c3ccc(F)cc3)s2)c1` (stereo not drawn) [Example 87]: the melting point was 172 °C. The IC50 in data set [1] (setting [2]) was 2000 to 10000 nM.
`CN1C(=O)CC(c2ccccc2)C1C(O)c1ccc(-c2cccc([N+](=O)[O-])c2)o1` (stereo not drawn) [Example 123] gave a melting point of 100 °C. For the same molecule, in data set [1] (setting [2]), the IC50 was in the range of 2000 to 10000 nM.
On to `CN1C(=O)C[C@H](c2ccc(N)cc2)[C@@H]1[C@H](O)c1ccc(-c2ccccc2)s1` (relative stereo) [Example 17, (±)-(4R*,5R*)-5-[(1S*)-hydroxy(5-phenyl(2-thienyl))methyl]-4-(4-aminophenyl)-1-methylpyrrolidin-2-one], for which the melting point fell in the range of 221 to 222 °C. In addition, the IC50 in data set [1] was below 500 nM.
The molecule `CN1C(=O)CC(c2ccccc2)C1C(O)c1ccc(S(=O)(=O)c2ccc(F)cc2)s1` (stereo not drawn) [Example 76] gave a melting point of 192 °C. Moreover, the concentration for half-maximal inhibition (IC50) in data set [1] is below 500 nM.
Consider `CN(C)c1ccc([C@H]2CC(=O)N(C)[C@H]2[C@H](O)c2ccc(-c3ccccc3)s2)cc1` (relative stereo) [Example 19, (±)-(4R*,5R*)-5-[(1S*)-hydroxy(5-phenyl(2-thienyl))methyl]-1-methyl-4-[4-(dimethylamino)phenyl]pyrrolidin-2-one], for which the IC50 in data set [1] (setting [2]) was in the range of 2000 to 10000 nM.
Regarding `CN1C(=O)C[C@H](c2ccccc2)[C@@H]1[C@H](O)c1ccc(S(=O)(=O)c2ccccc2)s1` [Example 149], the IC50 in data set [1] was below 500 nM.
For the molecule `CN1C(=O)C[C@H](c2ccccc2)[C@@H]1[C@H](O)c1ccc(-c2ccc(F)cc2)s1` [Example 146], in data set [1], the half-maximal inhibitory concentration (IC50) was below 500 nM.
Turning to `CN1C(=O)C[C@H](c2ccccc2)[C@@H]1COc1cccc(Cl)c1` (relative stereo) [Example 2, (±)-(4R*,5R*)-5-[(3-chlorophenoxy)methyl]-1-methyl-4-phenylpyrrolidin-2-one], the 50% inhibitory concentration (IC50) in data set [1] (setting [2]) was in the range of 2000 to 10000 nM.
In the case of `CN1C(=O)C[C@H](c2ccccc2)[C@@H]1[C@H](O)c1ccc(-c2cccnc2)s1` [Example 148], in data set [1], the half-inhibitory concentration (IC50) was below 500 nM.
`CN1C(=S)C[C@H](c2ccccc2)[C@@H]1[C@H](O)c1cccs1` (relative stereo) [Example 1, (±)-(4R*,5R*)-5-((1S*)-hydroxy-2-thienylmethyl)-1-methyl-4-phenylpyrrolidin-2-thione]: in data set [1] (setting [2]), the half-inhibitory concentration (IC50) lay in the range of 2000 to 10000 nM.
On to `CSC(c1cc2ccccc2[nH]1)[C@H]1[C@@H](c2ccccc2)CC(=O)N1C` (relative stereo) [Example 10], for which the half-inhibitory concentration (IC50) in data set [1] was below 500 nM.
On to `CN1C(=O)CC(c2ccccc2)C1C(O)c1ccc(-c2c(F)cccc2F)s1` (stereo not drawn) [Example 30], for which the IC50 in data set [1] is below 500 nM.
Regarding `CN1C(=O)C[C@H](c2ccc(-c3ccc(F)cc3)cc2)[C@@H]1[C@H](O)c1ccc(-c2ccccc2)s1` (relative stereo) [Example 22, (±)-(4R*,5R*)-5-[(1S*)hydroxy(5-phenyl(2-thienyl))-methyl]-4-[4-(4-fluorophenyl)phenyl]-1-methylpyrrolidin-2-one], the concentration for half-maximal inhibition (IC50) in data set [1] (setting [2]) is 2000 to 10000 nM.
`CN1C(=O)C[C@H](c2ccccc2)[C@@H]1[C@H](O)c1ccc(-c2cccnc2)s1` (racemic) [Example 79]: the IC50 in data set [1] is below 500 nM.
As to `CN1C(=O)C[C@H](c2ccccc2)[C@@H]1[C@H](O)c1ccc(-c2cccc(NC(=O)Nc3ccc(F)cc3)c2)s1` (relative stereo) [Example 25, (±)-(4R*,5R*)-5-{(1S*)[5-(3-{[(4-fluorophenyl)amino]carbonylamino}phenyl)(2-thienyl)]hydroxymethyl}-1-methyl-4-phenylpyrrolidin-2-one], the IC50 in data set [1] (setting [2]) was in the range of 2000 to 10000 nM.
Regarding `CN1C(=O)C[C@H](c2ccccc2)[C@@H]1[C@@H](O)c1ccc(-c2ccccc2)s1` [Example 11, (4R,5R)-5-[(1R)-hydroxy(5-phenyl(2-thienyl))methyl]-1-methyl-4-phenylpyrrolidin-2-one], the IC50 in data set [1] was below 500 nM.
The same measure, in the same setting: the figure for `CN1C(=O)CC(c2ccccc2)C1C(O)c1ccc(-c2ccc(Cl)cc2)s1` (stereo not drawn) [Example 51] is below 500 nM.
`CN1C(=O)C[C@H](c2ccc(CO)cc2)[C@@H]1[C@H](O)c1ccc(-c2ccccc2)s1` (relative stereo) [Example 21, (±)-(4R*,5R*)-5-[(1S*)hydroxy(5-phenyl(2-thienyl))methyl]-4-[4-(hydroxymethyl)phenyl]-1-methylpyrrolidin-2-one]: the concentration for half-maximal inhibition (IC50) in data set [1] (setting [2]) lay within 2000 to 10000 nM.
As for `CN1C(=O)CC(c2ccccc2)C1C(O)C#Cc1ccccc1F` (stereo not drawn) [Example 127], in data set [1], the 50% inhibitory concentration (IC50) was below 500 nM.
